Here are results for eleven compounds from PMC13172357 (Nature Communications, 2026).

The IC50 is the concentration that inhibits the measured activity by half.

Test [1] concerns the target T1, human USP7 full length protein (Homo sapiens, UniProt Q93009).
T1 construct: human USP7 full length protein
The test is described as follows: USP7 inhibition assay (Ubiquitin-Rhodamine110Gly cleavage). Format: biochemical. The following applies: Ub-RhoG cleavage, read-out: IC50 (half-maximal inhibition). As for the experimental part: USP7 inhibitors in DMSO were diluted in UbR buffer (40 mM Tris-HCl pH 8, 150 mM NaCl, 1 mM TCEP, 0.1 mg/mL BSA, 0.01% Tween20) to a concentration of 80 μM (4x). This stock was then further diluted in an 11-times serial dilution in UbR buffer containing 4% DMSO (4x). To this was added the same volume of human USP7 full length protein[59] […] The assay was initiated upon addition of 10 μL per well of Ubiquitin-Rhodamine110Gly (Ub-RhoG) (100 nM in UbR buffer, 2x). […] Normalization was carried out using samples featuring either no inhibitor or no enzyme as respective controls. […] Slopes of fluorescence over time curves were determined with Microsoft Excel through linear regression using the first 15 min of each measurement.

Another test concerns Panc89 cells. In words: Confluence measurement (cell growth), Panc89. The conditions noted are these: Panc89, 1-10 µM, 72 h, 25 mM or 5 mM D-glucose. Format: cell-based, human.
Test [2] has as its system Ma-Mel-47 USP7 K.O. cells. The test is described as follows: Medium color switch (images), Ma-Mel-47 USP7 K.O. cells. Format: cell-based, human. The following applies: Ma-Mel-47 USP7-KO, 72 h, 5 µM NK192, 10 µM FT671, 1 µM NK266.
Test [3] has as its target T2, USP7 (Homo sapiens, UniProt Q93009).
T2 construct: allowed the analysis of endogenous USP7 degradation in both cell lines; endogenous in cells; host or cells: Panc89 (PDAC) and Ma-Mel-47 (melanoma) cells
The test is described as follows: PROTAC rescue experiments, Western blot, Panc89 and Ma-Mel-47 cells. Format: cell-based. The following applies: 2 h pretreatment (MLN4924 500 nM, CFZ 250 nM, NK249 10 µM), then 1 µM NK250 or NK266 for 20 h. As for the experimental part:
Cells were treated with proteasome inhibitor Carfilzomib (CFZ, 250 nM), NEDDylation Inhibitor MLN4924 (500 nM) or VHL inhibitor NK249 (10 µM). After 2 h, PROTAC (1 µM) was added. Cells were analyzed after 20 h.

Test [4] deals with T2, USP7. The test is described as follows: USP7 degradation, Western blot densitometry, Panc89 cells. The test is classed as cell-based. The following applies: Panc89, 5 µM, 24 h, Western blot. How it is done: (§1) The melanoma cell line Ma-Mel-47 (established previously[57] from metastatic lesions from patient tumor tissues after written informed consent) and the PDAC cell line Panc89 (RRID: CVCL_4056, also referenced as T3M-4[58]) were cultured in a humidified incubator with 5% CO2 at 37 °C in RPMI1640 (Ma-Mel-47) / DMEM (Panc89) medium containing 10% (v/v) fetal calf serum (FCS) and penicillin/streptomycin (all Gibco, Thermo Fisher Scientific). Studies on human material were approved by the institutional review board. […] Testing for mycoplasma was performed by PCR monthly. To confirm cell identity, STR analysis was performed by the Microsynth Seqlab GmbH.
(§2) To prepare samples for Western blot analysis, cells were seeded in 6-well dishes the day before treatment to adhere at 70–80% confluency.
(§3) Cell pellets of all PDAC samples were lysed via adding a buffer containing 150 mM NaCl, 50 mM Tris/HCl (pH 7.4), 1% Triton X-100, 10 mM EDTA, 1 mM PMSF, 10 mM orthovanadate, and 1% aprotinin, incubating on ice for 1 h with vortexing every 15 minutes. Lysates were cleared of cell debris by centrifugation at 10,000 ×g at 4 °C for 10 min. […] Lysates were then clarified of cell debris by centrifugation at 13,000 ×g at 4 °C for 15 min. Thereafter, the total protein concentrations were either determined immediately or the protein extracts were stored at −20 or −80 °C. Pellets for samples shown in Fig. 6 and Supplementary Fig. 6 were lysed in 120 µL lysis buffer (50 mM Tris pH 8.0, 150 mM NaCl, 1% (v/v) IGEPAL, 0.5% (w/v) Na-deoxycholate, 0.1% (w/v) SDS) supplemented with 1x EDTA-free inhibitor protease cocktail (cOmplete, Roche) for 15 min at 4 °C. 0.2 µL Turbonuclease (Sigma Aldrich) and 5 mM MgCl2 were then added and lysates were incubated for 15 min at 4 °C. Cell debris was separated by centrifugation at 20,817 ×g for 15 min at 4 °C.
(§4) Protein concentrations of cell lysates were measured using the Pierce BCA Protein Assay (Thermo Fisher Scientific) or the Quick Start Bradford Protein Assay (Bio-Rad), following the manufacturers’ protocols. Measurements were recorded on Tecan Spark or Tecan Infinite M200 plate readers. Lysates were kept on ice throughout the entire process.
(§5) To separate proteins via SDS-PAGE, 10-20 µg of protein in lysis buffer was diluted with SDS-PAGE loading buffer (for most blots containing DTT or 2-mercaptoethanol) and denatured at 95 °C for 5 min. Protein separation was conducted at 95–110 V using the Mini-PROTEAN electrophoresis system (Bio-Rad). Proteins were then transferred to PVDF or nitrocellulose membranes using the Trans-Blot Turbo system (Bio-Rad) with the Trans-Blot Turbo RTA Kit for PVDF membranes. Prior to transfer, membranes were activated by soaking in 100% ethanol (for PVDF) or distilled water (for nitrocellulose) and proteins were transferred using the Mixed MW or the standard (1.0 A, 25 V, 30 min) protocol.
(§6) After transfer, membranes were blocked in 5% (w/v) milk/TBS-T for 1 h and then washed three times for 10 min with TBS-T. They were incubated overnight at 4 °C with the primary antibody in 5% (w/v) milk/TBS-T or 1% (w/v) BSA/TBS-T. Membranes were then washed three times for 10 min with TBS-T and incubated with horseradish peroxidase (HRP)-conjugated secondary antibodies in a solution of 5% (w/v) BSA/TBS-T or 1% (w/v) milk/TBS-T for 1 h at room temperature. PBS-T was used for blots shown in Fig. 6 and Supplementary Fig. 6.
(§7) Membranes were incubated with Clarity Western ECL substrate (Bio-Rad) for PDAC samples or Pierce ECL Western Blotting-Substrate (Thermo Fisher Scientific) for melanoma. Chemiluminescent signals were detected with a ChemiDoc Imaging System (Bio-Rad) for PDAC samples or with a ECL Chemostar Imager (Intas Science Imaging) for melanoma samples.
(§8) Densitometric quantification of band intensities for Fig. 2c, d was performed using the ImageJ software.

The target of test [5] is T2, USP7. The test is described as follows: USP7 degradation, Western blot densitometry, Ma-Mel-47 cells. The test is classed as cell-based. The conditions noted are these: Ma-Mel-47, 5 µM, 24 h, Western blot. As for the experimental part: as §1, §2, §3, §4, §5, §6, §7, §8
A general note: In western blotting, separated proteins are transferred to a membrane and probed.

The target in another test is HiBiT-USP7 (Homo sapiens, UniProt Q93009). In words: HiBiT USP7 degradation assay, MV4-11 cells. Format: cell-based. The conditions noted are these: MV4-11 HiBiT-USP7, 6 h and 24 h. As for the experimental part: HiBiT-USP7 construct was cloned by extraction of USP7 fragment from plasmid pQHA-USP7 WT puroR (Addgene #46753) using appropriate restriction sites. The USP7 fragment was then ligated into the pRRL-PGK-HiBiT entry vector to generate the plasmid.
Sequence of HiBiT-USP7 (Q93009 whole entry, the tested form may be a part): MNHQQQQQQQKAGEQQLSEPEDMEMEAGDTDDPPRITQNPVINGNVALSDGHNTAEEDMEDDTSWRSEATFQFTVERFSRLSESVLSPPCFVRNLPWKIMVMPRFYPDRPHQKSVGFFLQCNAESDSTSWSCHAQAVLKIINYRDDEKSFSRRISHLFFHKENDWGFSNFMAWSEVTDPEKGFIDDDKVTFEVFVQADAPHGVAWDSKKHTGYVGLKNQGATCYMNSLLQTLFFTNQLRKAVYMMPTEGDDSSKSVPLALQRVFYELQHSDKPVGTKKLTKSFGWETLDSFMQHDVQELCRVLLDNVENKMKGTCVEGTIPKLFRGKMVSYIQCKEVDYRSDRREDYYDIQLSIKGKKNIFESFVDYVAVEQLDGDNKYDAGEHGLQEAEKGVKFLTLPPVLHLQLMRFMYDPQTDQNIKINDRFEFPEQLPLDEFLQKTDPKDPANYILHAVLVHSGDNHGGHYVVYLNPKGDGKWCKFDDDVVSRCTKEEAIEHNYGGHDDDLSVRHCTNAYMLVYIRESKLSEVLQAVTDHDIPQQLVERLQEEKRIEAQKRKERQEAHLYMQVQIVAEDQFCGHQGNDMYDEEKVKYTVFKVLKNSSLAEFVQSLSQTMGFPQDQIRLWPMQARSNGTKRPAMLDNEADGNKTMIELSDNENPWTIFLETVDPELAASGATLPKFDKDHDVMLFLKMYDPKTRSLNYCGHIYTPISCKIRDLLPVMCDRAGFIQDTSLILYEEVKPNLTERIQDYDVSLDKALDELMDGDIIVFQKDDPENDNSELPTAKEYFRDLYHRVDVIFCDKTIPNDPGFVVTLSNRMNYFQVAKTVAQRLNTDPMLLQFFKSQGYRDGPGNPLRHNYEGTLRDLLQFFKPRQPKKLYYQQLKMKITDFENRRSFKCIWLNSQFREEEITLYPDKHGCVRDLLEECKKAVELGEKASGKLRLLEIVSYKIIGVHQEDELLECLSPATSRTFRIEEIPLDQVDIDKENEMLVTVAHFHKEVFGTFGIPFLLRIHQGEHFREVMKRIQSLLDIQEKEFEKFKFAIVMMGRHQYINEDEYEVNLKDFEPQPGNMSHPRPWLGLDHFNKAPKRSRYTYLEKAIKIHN
Lentiviral infection was used to generate stable a MV4-11 HiBiT cell line. Lentivirus was produced using plasmids psPAX2, pMD2.G, and HiBiT-USP7 plasmid in HEK293 cells. MV4-11 cells were infected with filtered virus supernatant and selected after 48 h of infection for the generation of the stable MV4-11^HiBiT-USP7 cell line.
The assay was performed as described previously. Briefly, MV4-11^HiBiT-USP7 cells were seeded and treated with compounds for the indicated time. Nano-Glo HiBiT Lytic Detection System (Promega) was used for the assay and luminescence was measured on a Tecan Spark microplate reader (Tecan). DC50 values were calculated using the sigmoidal dose-response (four parameters) equation in GraphPad Prism and are given as the concentration where 50% of the total signal was remaining. Dmax values are given as the maximum degradation observed at any concentration.
A general note: The HiBiT peptide binds its large partner to form an active luciferase.

The target in test [6] is T3, NanoLuc-USP7 and HaloTag-VHL (Homo sapiens, UniProt P40337+Q93009).
T3 construct: expressed in transfected cells; host or cells: HEK293T, transient transfection (FuGENE HD)
T3 sequence (Q93009 whole entry): as the sequence (Q93009 whole entry, the tested form may be a part) above
T3 sequence (P40337 whole entry): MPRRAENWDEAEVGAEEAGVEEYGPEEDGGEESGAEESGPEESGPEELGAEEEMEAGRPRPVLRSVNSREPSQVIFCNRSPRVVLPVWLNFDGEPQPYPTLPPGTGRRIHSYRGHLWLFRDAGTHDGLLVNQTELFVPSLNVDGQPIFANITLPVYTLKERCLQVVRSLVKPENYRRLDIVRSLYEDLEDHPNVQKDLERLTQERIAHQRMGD
T3 sequence (Q15370 whole entry partner): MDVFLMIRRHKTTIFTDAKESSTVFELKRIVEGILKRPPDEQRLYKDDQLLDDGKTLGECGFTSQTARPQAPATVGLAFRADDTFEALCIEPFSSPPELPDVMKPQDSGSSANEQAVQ
T3 sequence (Q15369 whole entry partner): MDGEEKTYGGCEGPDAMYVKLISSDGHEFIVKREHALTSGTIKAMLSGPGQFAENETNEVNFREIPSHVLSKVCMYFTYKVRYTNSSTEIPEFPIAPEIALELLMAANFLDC
In words: Cellular ternary complex formation assay (NanoBRET), HEK293T cells. The test is classed as cell-based. The following applies: for Ternary complex induction (in words): NanoBRET. How it is done: The assay was performed as described step-by-step elsewhere. USP7 (NanoLuc-USP7) and VHL (HaloTag-VHL) were cloned in frame with N-terminal NanoLuc or HaloTag, respectively. For transfections, HEK293T cells were diluted in Opti-MEM medium without phenol red (Life Technologies) to 4×10^5 cells/mL and 9 µL were pipetted into each well of a white 384-well plate (Greiner 781207). 1 mL transfection mix was prepared containing 30 µL FuGENE HD (Promega, E2312) and 8 µL of each plasmid, incubated 20 min at RT and 1 µL were pipetted into each well leading to the total assay volume of 10 µL. […] 2 h prior to BRET measurements, the compounds were titrated to the cells using an Echo acoustic dispenser and the cells were incubated further at 37 °C and 5% CO2 to allow complex formation. NanoBRET Nano-Glo substrate and Extracellular NanoLuc Inhibitor (Promega, N2540) were then added as per the manufacturer’s protocol, and filtered luminescence was recorded on a PHERAstar FSX plate reader (BMG Labtech) equipped with a luminescence filter pair (donor: 450 nm BP filter; acceptor: 610 nm LP filter). Data were analyzed using GraphPad Prism 10 software.
(In BRET a luciferase serves as donor, and the signal depends on an acceptor being close.)

T1 sequence (Q93009 whole entry): as the sequence (Q93009 whole entry, the tested form may be a part) above
T2 sequence (Q93009 whole entry): as the sequence (Q93009 whole entry, the tested form may be a part) above

In the case of `O=C(C[C@@H](C(F)F)n1ccc(F)n1)N1CCC(O)(Cn2cnc3c(cnn3-c3ccc(F)cc3)c2=O)CC1` [FT671, reference compound], the half-maximal inhibitory concentration (IC50) in test [1] worked out at 13 nM. Also, the “Cell growth (in words)” value in the test on Panc89 cells was “not affected”. Further, the “Change of media color (in words)” value in test [2] was “the same change of media color”.

With `CCc1c(-c2ccc3[nH]ncc3c2)cnc(N)c1-c1ccc(O)cc1` [GNE-6640], the IC50 in test [1] was found to be 545 nM.

Regarding `NS(=O)(=O)OC[C@@H]1C[C@@H](n2ccc3c(N[C@H]4CCc5ccccc54)ncnc32)C[C@@H]1O` [MLN4924, Pevonedistat], the “Rescue of PROTAC-mediated USP7 degradation (in words)” value (from here on “Rescue”) on USP7 [3] was “rescued PROTAC-mediated degradation of USP7”.

For `Cc1ncsc1-c1ccc(CNC(=O)C2CC(O)CN2C(=O)C(NC(=O)C2CCC(C(=O)N3CCN(c4ccc(-n5ncc6c(=O)n(CC7(O)CCN(C(=O)CC(C)c8ccccc8)CC7)cnc65)cc4)CC3)CC2)C(C)(C)C)cc1` (stereo not shown) [NK225], the “USP7 degradation (in words)” value at USP7 [4] is on record as “effectively degraded USP7”; at USP7 [5], “robust degradation of USP7”. In addition, the “HiBiT-USP7 levels (in words)” value on HiBiT-USP7 is listed as “lower potency”. The EC50 in test [6] (compound 2 h prior BRET measurement, read-out: EC50 (half-maximal ternary complex formation concentration)) stood at 144 nM.

In the case of `Cc1ncsc1-c1ccc(CNC(=O)[C@@H]2C[C@@H](O)CN2C(=O)[C@@H](NC(=O)C23C4C5C2C2C3C4C52C(=O)N2CCC(C3CCN(c4ccc(-n5ncc6c(=O)n(CC7(O)CCN(C(=O)C[C@@H](C)c8ccccc8)CC7)cnc65)cc4)CC3)CC2)C(C)(C)C)cc1` (stereo partly shown) [NK233], the entries for the “USP7 degradation (in words)” value on USP7 [4] and at USP7 [5] were “effectively degraded USP7” and “robust degradation of USP7”, respectively. In addition, on HiBiT-USP7, the “HiBiT-USP7 levels (in words)” value was “lower potency”. Further, in test [6], the “Ternary complex induction (in words)” value was “did not increase the BRET signal to the same level”.

As for `Cc1ncsc1-c1ccc([C@H](C)NC(=O)[C@@H]2C[C@@H](O)CN2C(=O)[C@@H](NC(=O)C2(F)CC2)C(C)(C)C)cc1` [NK249], the “Rescue” value at USP7 [3] is “rescued PROTAC-mediated degradation of USP7”.

For the compound `CC(CC(=O)N1CCC(O)(Cn2cnc3c(cnn3-c3ccc(N4CCN(C(=O)CCOCCOCCOCCNC(=O)CCCCC5SCC6NC(=O)NC65)CC4)cc3)c2=O)CC1)c1ccccc1` (stereo not shown) [NK264], in test [1], the IC50 stood at 15 nM.

As to `CC(=O)c1cc([N+](=O)[O-])c(Sc2cccc(Cl)c2Cl)s1` [P5091], the IC50 in test [1] came to 2070 nM.

As to `Cc1ncsc1-c1ccc(CNC(=O)[C@@H]2C[C@@H](O)CN2C(=O)[C@@H](NC(=O)C2(C#N)CC2)C(C)(C)C)cc1` [VH298, reference compound], the “Ternary complex induction (in words)” value in test [6] is on record as “neither the negative control NK245 nor the VHL ligand VH298 induced a ternary complex”.

Turning to `CN1CCN(CCC(=O)Nc2ccc3c(=O)n(CC4(O)CCN(C(=O)[C@@H](CCCNC(=O)c5ccc6c(Cl)c7c(nc6c5)CCCC7)Cc5ccccc5)CC4)cnc3c2)CC1` [XL177A], in test [1], the IC50 was found to be 91 nM.

For the compound `CC(C)C[C@H](NC(=O)[C@H](CCc1ccccc1)NC(=O)CN1CCOCC1)C(=O)N[C@@H](Cc1ccccc1)C(=O)N[C@@H](CC(C)C)C(=O)[C@@]1(C)CO1` [carfilzomib, Carfilzomib], the “Rescue” value at USP7 [3] was “rescued PROTAC-mediated degradation of USP7”.
